These results are taken from US10683297B2 (Sunshine Lake Pharma Co., Ltd., priority 2017, dated 2020).

pIC50: −log10 of the molar value. Marks after values point to notes of the source that are not given here.

Data set [1] can be described thus: Compound stability in rat liver microsomes. The class given is in vitro ADME. The conditions noted are these: for CLint scaled at 5 μM: liver microsomes, pH 7.4, in vivo CLint extrapolated from rat liver microsome incubation; for half-life at 5 μM: rat liver microsomes 0.5 mg protein/mL, compound 5 μM, NADPH 1.0 mM, pH 7.4, 37° C., read-out: Rat T1/2. The essentials:
(§1)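 Compounds (5 μM) incubated at 37 °C with human or rat liver microsomes (0.5 mg protein/mL) and 1.0 mM NADPH in 100 mM phosphate buffer pH 7.4, 0.05% DMSO, in duplicate. Sampled 0–60 min, quantified by LC/MS/MS as % of time zero; CLint extrapolated.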

Data set [2] can be described thus: Compound stability in human liver microsomes. It counts as in vitro ADME. The conditions noted are these: for half-life at 5 μM: human liver microsomes 0.5 mg protein/mL, compound 5 μM, NADPH 1.0 mM, pH 7.4, 37° C., read-out: Human T1/2; for CLint scaled at 5 μM: liver microsomes, pH 7.4, in vivo CLint extrapolated from human liver microsome incubation. The essentials: as §1

The nature of data set [3]: Pharmacokinetics after intravenous and oral administration in rats. The class given is in vivo. The essentials: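 Rats dosed i.v. (about 0.5, 0.6, 1 or 2 mg/kg) or p.o. (5 or 10 mg/kg) as solution, suspension or capsule. Plasma sampled over 24 h and quantified by LC/MS/MS in MRM mode with ESI.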
Data set [4] has as its system PMA-induced increase in mouse ear thickness and weight. As to the kind of experiment: Topical PMA-induced acute atopic dermatitis in ICR mice. The note with it: ICR female mice, 0.3 mg/ear/bid topical; for thickness (right ear) / Weight (right ear): 30 minutes before and 15 minutes after PMA, Mean±Sem; for thickness (right ear) / thickness Inhibition ratio: 6 hours after PMA. The class given is in vivo. As to the method:
ICR female mice (20-30 g), five mice or nine mice/group, were used in this study. Five micrograms of PMA (phorbol 12-myristate 13-acetate) in 20 μL of ethanol was applied topically to the anterior and posterior surface of the right ear of each mouse. Twenty microliters of vehicle (ethanol/acetone ([…])=1/1); 0.3 mg of EX. 68 ([…]); EX. 76, EX. 50, EX. 92 or EX. 65 (0.3 mg […]) were administrated to the same areas 30 minutes before and 15 minutes after PMA application. The thickness of right ears of each mouse was measured 6 hours after PMA stimulation. Ear weight of right ears of each mouse was weighed with analytical balance Each value represents the Mean±Sem. Statistical significance compared with model groups (*P<0.05; **P<0.01). Tables 5-1, 5-2 and 5-3 listed the inhibitory effect on PMA-induced increase in mouse ear thickness and weight. The compounds of the present invention have a good inhibitory effect on PMA-induced increase in mouse ear thickness and weight.

A further data set concerns the target T1, Aurora-B (h) (Homo sapiens, UniProt Q96GD4).
T1 construct: purchased Millipore UK Ltd (assays performed there as a service)
The experiment in a line: Aurora-B (h) kinase assay. The conditions noted are these: [γ-33P-ATP] 10 μM or KM values; 40 minutes at room temperature. It counts as biochemical. As to the method: (§2) The above assay procedure can be used to determine the IC50 for inhibition and/or the inhibition constant, Ki. […] The IC50 value is estimated by preparing a 10 point curve using a ½ log dilution series (for example, a typical curve may be prepared using the following compound concentrations: 3 μM, 1 μM, 0.3 μM, 0.1 μM, 0.03 μM, 0.01 μM, 0.003 μM, 0.001 μM, 0.0003 μM and 0 μM).
Aurora-B (h) is incubated with 8 mM MOPS pH 7.0, 0.2 mM EDTA, 30 μM […], 10 mM MgAcetate and [γ-^33PATP] […] The reaction is initiated by the addition of the MgATP mix. After incubation for 40 minutes at room temperature, the reaction is stopped by the addition of a 3% phosphoric acid solution. 10 μL of the reaction is then spotted onto a P30 filtermat and washed three times for 5 minutes in 75 mM phosphoric acid and once in methanol prior to drying and scintillation counting.
(§3) The kinase assays described herein were performed at Millipore UK Ltd, Dundee Technology Park, Dundee DD2 1SW, UK.

Another data set concerns the target T2, JAK1 (h) (Homo sapiens, UniProt P23458).
T2 construct: purchased Millipore UK Ltd (assays performed there as a service)
As to the kind of experiment: JAK1 (h) kinase assay. The class given is biochemical. The note with it: [γ-33P-ATP] 10 μM or KM values; 40 minutes at room temperature. The procedure:
as §2
JAK1 (h) is incubated with 20 mM Tris/HCl pH 7.5, 0.2 mM EDTA, 500 μM […], 10 mM MgAcetate and [γ-^33P-ATP] […] The reaction is initiated by the addition of the MgATP mix. After incubation for 40 minutes at room temperature, the reaction is stopped by the addition of 3% phosphoric acid solution. 10 μL of the reaction is then spotted onto a P30 filtermat and washed three times for 5 minutes in 75 mM phosphoric acid and once in methanol prior to drying and scintillation counting.
as §3

The target in another data set is T3, JAK2 (h) (Homo sapiens, UniProt O60674).
T3 construct: purchased Millipore UK Ltd (assays performed there as a service)
T3 sequence (O60674 whole entry): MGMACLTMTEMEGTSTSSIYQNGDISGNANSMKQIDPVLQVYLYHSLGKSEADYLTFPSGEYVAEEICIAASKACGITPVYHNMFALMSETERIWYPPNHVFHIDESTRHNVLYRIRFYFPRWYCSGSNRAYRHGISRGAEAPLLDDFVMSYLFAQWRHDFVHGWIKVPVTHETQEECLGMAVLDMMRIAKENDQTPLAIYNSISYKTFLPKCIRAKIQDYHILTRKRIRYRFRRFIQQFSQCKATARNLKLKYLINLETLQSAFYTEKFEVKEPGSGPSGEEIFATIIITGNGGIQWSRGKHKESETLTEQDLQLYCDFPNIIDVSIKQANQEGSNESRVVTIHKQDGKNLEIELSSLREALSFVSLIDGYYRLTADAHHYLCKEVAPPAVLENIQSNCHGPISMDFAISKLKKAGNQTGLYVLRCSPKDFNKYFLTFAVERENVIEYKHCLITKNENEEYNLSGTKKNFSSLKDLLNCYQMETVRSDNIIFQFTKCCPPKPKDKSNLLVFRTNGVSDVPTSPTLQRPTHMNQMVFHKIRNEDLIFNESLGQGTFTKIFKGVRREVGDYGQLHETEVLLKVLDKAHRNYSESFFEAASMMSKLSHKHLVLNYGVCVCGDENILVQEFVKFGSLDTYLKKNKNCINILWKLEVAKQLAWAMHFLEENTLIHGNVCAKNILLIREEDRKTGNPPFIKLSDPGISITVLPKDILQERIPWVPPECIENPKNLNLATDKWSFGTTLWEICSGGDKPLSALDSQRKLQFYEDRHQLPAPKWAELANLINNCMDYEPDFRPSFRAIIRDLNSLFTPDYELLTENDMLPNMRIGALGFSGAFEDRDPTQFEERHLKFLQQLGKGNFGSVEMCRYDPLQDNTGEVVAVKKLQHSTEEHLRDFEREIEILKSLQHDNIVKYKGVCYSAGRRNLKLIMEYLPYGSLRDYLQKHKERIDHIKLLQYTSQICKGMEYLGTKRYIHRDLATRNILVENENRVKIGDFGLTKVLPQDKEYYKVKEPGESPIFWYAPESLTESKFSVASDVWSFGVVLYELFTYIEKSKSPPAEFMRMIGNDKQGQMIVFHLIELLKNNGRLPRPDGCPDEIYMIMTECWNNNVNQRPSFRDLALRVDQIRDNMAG
The experiment in a line: JAK2 (h) kinase assay. The class given is biochemical. The conditions noted are these: [γ-33P-ATP] 10 μM or KM values; 40 minutes at room temperature. The procedure:
Kinase assays can be performed by measurement of incorporation of γ-^33P ATP into immobilized myelin basic protein (MBP). High binding white 384 well plates (Greiner) are coated with MBP (Sigma # M-1891) by incubation of 60 μL well of 20 μg/mL MBP in Tris-buffered saline (TBS; 50 mM Tris pH 8.0, 138 mM NaCl, 2.7 mM KCl) for 24 h at 4° C. Plates are washed 3× with 100 μL TBS. Kinase reactions are carried out in a total volume of 34 μL in kinase buffer (according to the need to make, for example, 5 mM Hepes pH 7.6, 15 mM NaCl, 0.01% bovine gamma globulin (Sigma #1-5506), 10 mM MgCl2, 1 mM DTT, 0.02% TritonX-100). Compound dilutions are performed in DMSO and added to assay wells to a final DMSO concentration of 1%. Each data point is measured in duplicate, and at least two duplicate assays are performed for each individual compound determination. Enzyme is added to final concentrations of 10 nM or 20 nM, for example. A mixture of unlabeled ATP and γ-^33P ATP is added to start the reaction (2×10^6 cpm of γ-^33P ATP per well (3000 Ci/mmole) and 10 μM unlabeled ATP, typically. The reactions are carried out for 1 hour at room temperature with shaking. Plates are washed 7× with TBS, followed by the addition of 50 μL well scintillation fluid (Wallac). Plates are read using a Wallac Trilux counter. This is only one format of such assays; various other formats are possible, as known to one skilled in the art.
as §2
JAK2 (h) is incubated with 8 mM MOPS pH 7.0, 0.2 mM EDTA, 100 μM […], 10 mM MgAcetate and [γ-^33P-ATP] […] The reaction is initiated by the addition of the MgATP mix. After incubation for 40 minutes at room temperature, the reaction is stopped by the addition of 3% phosphoric acid solution. 10 μL of the reaction is then spotted onto a P30 filtermat and washed three times for 5 minutes in 75 mM phosphoric acid and once in methanol prior to drying and scintillation counting.
as §3

[5] abbreviates: rat, plasma, iv dosing, dose 1 mg/kg (Ex. 9: 0.6, Ex. 18: 0.5, Ex. 50: 0.96 mg/kg).

T2 sequence (P23458 whole entry): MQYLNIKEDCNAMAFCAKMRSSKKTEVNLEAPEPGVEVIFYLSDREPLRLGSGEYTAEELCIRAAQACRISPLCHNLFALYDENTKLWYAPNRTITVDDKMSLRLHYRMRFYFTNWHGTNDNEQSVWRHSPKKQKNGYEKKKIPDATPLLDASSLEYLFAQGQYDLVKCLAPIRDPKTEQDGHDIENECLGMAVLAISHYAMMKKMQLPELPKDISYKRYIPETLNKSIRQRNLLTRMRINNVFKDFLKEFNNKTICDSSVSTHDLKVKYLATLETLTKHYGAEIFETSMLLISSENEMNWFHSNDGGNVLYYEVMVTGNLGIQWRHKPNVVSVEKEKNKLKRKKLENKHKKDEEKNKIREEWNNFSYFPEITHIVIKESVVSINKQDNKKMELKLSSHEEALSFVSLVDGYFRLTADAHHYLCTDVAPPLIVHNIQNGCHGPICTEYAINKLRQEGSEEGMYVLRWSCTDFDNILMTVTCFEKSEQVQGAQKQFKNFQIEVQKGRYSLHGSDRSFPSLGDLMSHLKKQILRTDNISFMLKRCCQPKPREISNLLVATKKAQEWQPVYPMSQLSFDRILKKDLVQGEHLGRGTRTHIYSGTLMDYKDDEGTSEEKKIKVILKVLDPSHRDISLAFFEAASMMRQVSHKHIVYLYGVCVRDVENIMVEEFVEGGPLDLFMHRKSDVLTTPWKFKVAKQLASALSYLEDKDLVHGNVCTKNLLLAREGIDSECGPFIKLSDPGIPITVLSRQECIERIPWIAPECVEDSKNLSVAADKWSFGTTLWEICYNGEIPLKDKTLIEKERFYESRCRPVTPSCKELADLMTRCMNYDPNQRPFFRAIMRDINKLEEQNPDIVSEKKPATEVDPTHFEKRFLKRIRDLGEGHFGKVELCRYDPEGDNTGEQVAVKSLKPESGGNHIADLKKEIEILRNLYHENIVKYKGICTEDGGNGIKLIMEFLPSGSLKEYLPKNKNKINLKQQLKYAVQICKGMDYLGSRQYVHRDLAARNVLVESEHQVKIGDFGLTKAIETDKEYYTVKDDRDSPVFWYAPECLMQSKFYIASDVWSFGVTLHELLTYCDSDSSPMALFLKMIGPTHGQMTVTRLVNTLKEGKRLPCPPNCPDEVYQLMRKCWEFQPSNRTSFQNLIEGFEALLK
T1 sequence (Q96GD4 whole entry): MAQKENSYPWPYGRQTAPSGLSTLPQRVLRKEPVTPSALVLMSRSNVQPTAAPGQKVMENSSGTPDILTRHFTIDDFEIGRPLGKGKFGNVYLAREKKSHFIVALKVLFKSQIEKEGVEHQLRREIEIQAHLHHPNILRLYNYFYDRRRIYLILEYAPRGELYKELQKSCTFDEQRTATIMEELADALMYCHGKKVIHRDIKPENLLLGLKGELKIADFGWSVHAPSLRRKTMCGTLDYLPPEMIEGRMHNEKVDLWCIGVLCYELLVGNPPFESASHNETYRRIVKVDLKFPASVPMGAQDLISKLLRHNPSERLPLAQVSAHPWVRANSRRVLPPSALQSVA

As for `Cn1cnc2cc(Nc3ncc(Cl)c(NC4CCN(c5ccc(C#N)nn5)CC4)n3)ccc21` [Example 50, 6-(4-((5-chloro-2-((1-methyl-1H-benzo[d]imidazol-5-yl)amino)pyrimidin-4-yl)amino)piperidin-1-yl)pyridazine-3-carbonitrile], in data set [1], the CLint scaled – broadly, the rate of metabolic loss divided by the concentration – at 5 μM is 58.2 mL/min/kg and the half-life at 5 μM turned out to be 29.9 min. In data set [2], the half-life at 5 μM amounted to 55.6 min and the CLint scaled at 5 μM was 31.3 mL/min/kg. Further, in data set [3] (iv dosing, dose 1 mg/kg (Ex. 9: 0.6, Ex. 18: 0.5, Ex. 50: 0.96 mg/kg)), the “Clearance (CL) after iv dosing” value is 14.2 mL/min/kg. In data set [3] (setting [5]), the AUC(0-t) (in general, exposure summed from dosing to a finite time, without extrapolation to infinity) was 1210 ng·h/mL and the half-life was 63 min. Further, in data set [3] (rat, plasma, iv dosing, dose 1 mg/kg (Ex. 9: 0.6, Ex. 18: 0.5, Ex. 50: 0.96 mg/kg), read-out: Vss), the Vd amounted to 1.17 L/kg. Moreover, the bioavailability (in general, dose-corrected exposure relative to a reference, in per cent) in data set [3] (rat, plasma, oral (generally 5 or 10 mg/kg) versus iv dosing, read-out: F (oral bioavailability)) is 51.8%. In addition, in data set [4], the “Weight Inhibition ratio” value was found to be 39.95%, the “thickness (right ear)” value is 0.321 ± 0.022** mm, the “Weight (right ear)” value was 25.222 ± 1.998** mg and the “thickness Inhibition ratio” value was 46.89%.
For the compound `CC(C)(O)Cn1nnc2cc(Nc3ncc(Cl)c(NC4CCN(c5ccc(C#N)nn5)CC4)n3)ccc21` [Example 62, 6-(4-((5-chloro-2-((1-(2-hydroxy-2-methylpropyl)-1H-benzo[d][1,2,3]triazol-5-yl)amino)pyrimidin-4-yl)amino)piperidin-1-yl)pyridazine-3-carbonitrile], the CLint scaled at 5 μM is 75.3 mL/min/kg in data set [1] and 9.1 mL/min/kg in data set [2]. Moreover, the half-life at 5 μM in data set [1] amounted to 33 min; in data set [2], 192 min. Further, the pIC50 (usually the IC50 on a negative log10 scale, so that one unit is a factor of ten) on Aurora-B (h) is 7.32; at JAK1 (h), 9.40; at JAK2 (h) it was 8.70.
`CCCn1nnc2cc(Nc3ncc(Cl)c(NC4CCN(c5ccc(C#N)nn5)CC4)n3)ccc21` [Example 65, 6-(4-((5-chloro-2-((1-propyl-1H-benzo[d][1,2,3]triazol-5-yl)amino)pyrimidin-4-yl)amino)piperidin-1-yl)pyridazine-3-carbonitrile]: in data set [1], the intrinsic metabolic clearance (CLint scaled) at 5 μM was 473 mL/min/kg and the half-life at 5 μM was determined as 5.3 min. In data set [2], the half-life at 5 μM was 8 min and the CLint scaled at 5 μM is 218 mL/min/kg. The compound also gave a pIC50 at JAK1 (h) of 9.05. Further, in data set [4], the “Weight Inhibition ratio” value was 46.22%, the “thickness (right ear)” value is listed as 0.374 ± 0.022** mm, the “Weight (right ear)” value is 26.333 ± 1.958* mg and the “thickness Inhibition ratio” value is reported as 38.95%.
With `CC(C)(O)Cc1cn2ccc(Nc3ncc(Cl)c(NC4CCN(c5ccc(C#N)cn5)CC4)n3)cc2n1` [Example 76, 6-(4-((5-chloro-2-((2-(2-hydroxy-2-methylpropyl)imidazo[1,2-a]pyridin-7-yl)amino)pyrimidin-4-yl)amino)piperidin-1-yl)nicotinonitrile], in data set [1], the CLint scaled at 5 μM is 1440 mL/min/kg and the half-life at 5 μM is 1.7 min. For the same compound, in data set [2], the half-life at 5 μM was 15.1 min and the CLint scaled at 5 μM is 115 mL/min/kg. This compound also had a pIC50 against JAK1 (h) of 9.30. Further, in data set [4], the “Weight Inhibition ratio” value was found to be 68.40%, the “thickness (right ear)” value is recorded as 0.252 ± 0.018** mm, the “Weight (right ear)” value was 20.000 ± 1.323** mg and the “thickness Inhibition ratio” value came to 77.86%.
As to `CN(C)C(=O)c1nc2cc(Nc3ncc(Cl)c(NC4CCN(c5ccc(C#N)nn5)CC4)n3)ccn2n1` [Example 85, 7-((5-chloro-4-((1-(6-cyanopyridazin-3-yl)piperidin-4-yl)amino)pyrimidin-2-yl)amino)-N,N-dimethyl-[1,2,4]triazolo[1,5-a]pyridine-2-carboxamide], the values for the CLint scaled at 5 μM in data set [1] and in data set [2] were 106 mL/min/kg and 53.5 mL/min/kg, respectively. Also, the half-life at 5 μM in data set [1] was determined as 23.5 min; in data set [2] it was 32.5 min. The pIC50 was 6.79 against Aurora-B (h), 9.52 against JAK1 (h) and 7.77 against JAK2 (h).
With `N#Cc1ccc(N2CCC(Nc3nc(Nc4cnc5c(c4)ncn5CCO)ncc3Cl)CC2)nc1` [Example 92, 6-(4-((5-chloro-2-((3-(2-hydroxyethyl)-3H-imidazo[4,5-b]pyridin-6-yl)amino)pyrimidin-4-yl)amino)piperidin-1-yl)nicotinonitrile], in data set [4], the “Weight Inhibition ratio” value was 72.30%, the “thickness (right ear)” value is on record as 0.319 ± 0.027** mm, the “Weight (right ear)” value is recorded as 21.444 ± 1.952** mg and the “thickness Inhibition ratio” value turned out to be 60.03%.
